Assay: Influencing factors test (light, high temperature, high humidity)
Assay type: physicochemical
Description: The stability of the crystalline form of the present invention under accelerated test conditions was determined. […] Stability testing was conducted under the following conditions, and samples were taken on the 0th day, the 5th day, the 10th day and the 30th day. The content, total impurities, and XRPD patterns of the samples were recorded and compared with the initial data.

[1] = High humidity test (25° C., 90 ± 5% RH), 5 d
[2] = High humidity test (25° C., 90 ± 5% RH), 10 d
[3] = High humidity test (25° C., 90 ± 5% RH), 30 d
[4] = High temperature test (60° C.), 5 d
[5] = High temperature test (60° C.), 10 d
[6] = High temperature test (60° C.), 30 d
[7] = Light test (Illuminance 5000 Lx and UV lamp energy 0.9 W/m^2), 5 d
[8] = Light test (Illuminance 5000 Lx and UV lamp energy 0.9 W/m^2), 10 d
[9] = Light test (Illuminance 5000 Lx and UV lamp energy 0.9 W/m^2), 30 d

Content (%) (0 d): 99.1%
Total impurity (0 d): 0.325%
stability under accelerated test conditions (content, total impurities, XRPD) (5000Lx light, 60° C., 90% RH±5% RH, 0, 5, 10, 30 days): better stability
Content (%) [1]: 100.1%
Total impurity [1]: 0.32%
Content (%) [2]: 100.1%
Total impurity [2]: 0.31%
Content (%) [3]: 100.1%
Total impurity [3]: 0.32%
Content (%) [4]: 100.2%
Total impurity [4]: 0.34%
Content (%) [5]: 100.4%
Total impurity [5]: 0.33%
Content (%) [6]: 100.3%
Total impurity [6]: 0.35%
Content (%) [7]: 99.5%
Total impurity [7]: 0.34%
Content (%) [8]: 98.9%
Total impurity [8]: 0.36%
Content (%) [9]: 99.4%
Total impurity [9]: 0.43%
Compound: C[C@@H](O)c1nc2cnc3[nH]ccc3c2n1N1CCC(CC#N)CC1 [Crystalline form A, (R)-2-(1-(2-(1-hydroxyethyl)imidazo[4,5-d]pyrrolo[2,3-b]pyridine-1(6H)-yl)piperidin-4-yl)acetonitrile]
